According to patent US11655308B2, “HM-3 fusion protein and application thereof” (TASLY BIOPHARMACEUTICALS CO., LTD., priority 2017, dated 2023):

Key:
[1] = system: type-II CIA mice; assay: Chronic inflammation model of type-II CIA in mice; assay type: in vivo, Balb/c mice; conditions: for ankle width / arthritis scoring / paw circumference / weight of mice / paw weight / spleen weight: day 60; for ankle width: model G2 4.83±0.20; for arthritis scoring: model G2 11.5±1.7; for paw circumference: model G2 13.62; for weight of mice: model G2 19.5±1.6; for paw weight: model G2 219.3±20.6; for spleen weight: model G2 114.6±14.5
Experimental: Experimental method: Balb/c mice were taken and immunized for the first time. The concentration of type-II bovine collagen was 4 mg/mL. On the day of the experiment (day 0), complete Freund's adjuvant (CFA) and CII solution were mixed evenly in equal volume and emulsified. Excepting for the normal control group of Balb/c mice, mice in each group were sensitized by intracutaneous injection of 50 μL emulsifier at the end of tails. 21 days later, mice were re-immunized with the same dose of emulsifier at the end of tails, and incomplete Freund's adjuvant (IFA) served as an adjuvant at this time. Redness and swelling other arthritic symptoms appeared on toe joints of mice models approximately on the 29th day of the experiment, indicating successful modeling.
Animals in the modeling group on the 30th day of the experiment were randomly divided into:
There were 12 groups in total, and there were 8 pieces of mice in remaining each group excepting for 12 pieces in G1 (normal control group) and G2 (model group).
Measurement of mice weight: mice were weighed by an electronic balance every two days.
Measurement of sole thickness: the thickness of left, right and hind soles for each mouse was measured by a vernier caliper every two days.
Measurement of ankle joint width: the width of left and right ankle joints for each mouse was measured by vernier caliper every two days.
Arthritis index (AI) score: the severity of arthritis for each mouse was evaluated by a paw joint scoring method. 0: no redness and swelling; 1: redness and swelling of little toe joints; 2: redness and swelling of toe joints and toes; 3: redness and swelling of the portion below ankle joints; 4: redness and swelling of toe joints, toes and ankle joints. Scoring was performed once every two days until the end of the experiment.
Blood was collected from the orbit and serum was separated. After mice were killed by cervical dislocation, spleen and thymus were separated and weighed to calculate a spleen coefficient, and then the spleen and thymus were fixed in formalin stationary liquid.

[2] = system: human macrophage U937; assay: TNF-α production by LPS-induced human macrophage U937 (ELISA); assay type: cell-based
Experimental: Experimental method: Human macrophage U937 was cultured in RPMI-1640 medium containing 10% fetal bovine serum and double antibodies in a constant temperature incubator at 37° C. under the condition of 5% CO2, and the medium was replaced every 2 days. U937 cells in the logarithmic phase were collected, resuspended and adjusted to the concentration of 5×10^5/mL. 100 μL of cells was added to each well of a 96-well plate overnight and induced with LPS (1 μg/mL) in the following day, where n=3. At the same time, the cells were treated with agents, and respectively divided into a positive control group adalimumab, an HM-3 polypeptide group, an mPEG-SC-HM-3 polypeptide group, an HM-3 fusion protein (TSL-1, TSL-2, TSL-3, TSL-4) group, and the specific dosing scheme was shown in Table 5.
48 h after the agents worked, culture medium was collected and centrifuged, and supernatant was taken to measure the content of TNF-α therein by ELISA. Test results were expressed as mean±SD, and statistical T test was performed. *P<0.05 indicates significant difference, **P<0.01 indicates extremely significant difference. Based upon the results, the efficacy of the HM-3 fusion protein against rheumatoid arthritis was screened.

[3] = system: mice splenic lymphocyte proliferation stimulated by ConA; assay type: cell-based
Experimental: Experimental method: mice orbit was by bloodletting to death, and immediately immersed in 75% ethanol for 5-10 min, and then the spleen was removed on a clean bench and placed in PBS. The spleen was placed on a sterile cell strainer (200 mesh) and ground with a syringe nozzle; during grinding process, PBS was added continuously; the slurry was collected and centrifuged (1000 rpm for 5 min), then cells were washed 3 times with Tris-ammonium chloride solution, and washed again with a medium, and then re-suspended in the medium. Finally, trypan blue living cell staining was performed on the cells, and the survival rate was more than 95%. The concentration of viable cells was adjusted to 2×10^6/mL. […] was added to each well of a 96-well plate, meanwhile, ConA (concanavalin to simulate splenocyte proliferation) and drugs were added to each well. Six duplicates were set in each group.
The 96-well plate was incubated for 48 h in a 5% CO2 incubator at 37° C. 5 mg/mL of MTT was added to the 96-well plate, 20 μL for each well, and then it was incubated continuously for 4 h in the incubator. The culture medium in the 96-well plate was discarded and 100 μL DMSO was added to each well and mixed gently. Absorbance was measured by a microplate reader at the wavelength of 570 nm and reference wavelength of 630 nm.
Proliferation inhibition rate (PI) was calculated according to formula:
[formula] wherein, Atest is the absorbance of dosing group, and Acontrol is the absorbance of negative control. Test results were expressed as mean±SD, and statistical T test was performed. *P<0.05 indicates significant difference, **P<0.01 indicates extremely significant difference. Based upon the results, the efficacy of the fusion protein against rheumatoid arthritis was screened.
In the P4 control group, TSL-4 fusion protein served as a control agent.

[4] = G6 TSL-4 50 mg/kg SC 1 time/5 d, 3 times
[5] = G7 TSL-4 25 mg/kg SC 1 time/5 d, 3 times
[6] = G8 TSL-4 25 mg/kg SC 1 time/7 d, 2 times
[7] = G10 TSL-4 12.5 mg/kg SC 1 time/5 d, 3 times

mIgG4-Fc-(GGGGS)3-HM-3 [TSL-4]
ankle width [1, 4]: 3.96±0.09 mm
arthritis scoring [1, 4]: 6.5±1.1
paw circumference [1, 4]: 10.80±0.26 mm
weight of mice [1, 4]: 20.8 ± 1.8 g
paw weight [1, 4]: 176.2 ± 8.9 mg
ankle width [1, 5]: 3.98±0.08 mm
arthritis scoring [1, 5]: 6.6±1.1
paw circumference [1, 5]: 10.87±0.14 mm
weight of mice [1, 5]: 21.1 ± 1.6 g
spleen weight [1, 5]: 95.1 ± 9.5 mg
paw weight [1, 5]: 176.4 ± 9.7 mg
ankle width [1, 6]: 4.00±0.16 mm
arthritis scoring [1, 6]: 7.1±0.6
paw circumference [1, 6]: 10.97±0.32 mm
weight of mice [1, 6]: 20.8 ± 1.7 g
spleen weight [1, 6]: 95.8 ± 11.4 mg
paw weight [1, 6]: 177.1 ± 7.8 mg
ankle width [1, 7]: 4.26±0.13 mm
arthritis scoring [1, 7]: 8.6±1.8
paw circumference [1, 7]: 11.64±0.19 mm
weight of mice [1, 7]: 21.5 ± 1.5 g
spleen weight [1, 7]: 97.5 ± 5.1 mg
therapeutic effect compared with group G3 (positive Adalimumab group) ([1]; groups G4 (HM-3), G10 (TSL-4 12.5 mg/kg once for 5 days, 3 times)): slightly lower than that of the group G3
therapeutic effect compared with group G3 (positive Adalimumab group) ([1]; groups G5 (mPEG-SC-HM-3), G6, G7, G8 (TSL-4)): better than the group G3
inhibitory effect on TNF-α compared with HM-3 and mPEG-SC-HM-3 [2]: much better than that of polypeptide HM-3 and mPEG-SC-HM-3
TNF-α content in cell supernatant ([2]; 9 μM, LPS 1 μg/mL, 48 h, negative group 77.6±19.6): 22.2 ± 8.9 pg/mL
optimal (best) inhibition rate of splenic lymphocyte proliferation ([3]; ConA 5 μg/mL, 48 h, MTT, best of the tested concentrations): 63.3%
inhibition rate compared with the positive control group ([3]; positive group Dexamethasone 50 μmol/L): higher than that of the positive control group
inhibition ratio of mice splenic lymphocyte proliferation relative to group ConA ([3]; second round (Table 3)): enhanced significantly
